Earlier results on 2 compounds are cited in US20120165520A1, “PROCESS FOR THE SYNTHESIS OF PRODRUGS OF OPIOIDS” (priority 2010, published 2012).

Experiment in data set [1]: not given
The source holds these as a separate data set.

Some results are limits rather than exact numbers.

As to `CCC1(c2cccc(O)c2)CCCCN(C)C1` (centres unmarked) [Meptazinol, meptazinol], the oral bioavailability was below 10%.

Consider `COc1ccc2c3c1O[C@H]1[C@@H](O)CC[C@H]4[C@@H](C2)N(C)CC[C@@]341` [dihydrocodeine], for which the “fraction of an oral dose converted to dihydromorphine” value in data set [1] is “less than 2%”.
